Assay results reported in patent US20200029564A1, “NOVEL 5-SUBSTITUTED IMIDAZOLYLMETHYLOXIRANE DERIVATIVES” (Bayer CropScience Aktiengesellschaft, priority 2016, published 2020).

How the values were obtained:
[1] = LogP by HPLC on reversed phase columns (EEC directive 79/831 Annex V.A8); format: physicochemical; conditions: method [a]: LC-UV, acidic range, 0.1% formic acid in water and acetonitrile as eluent; for chromatographic logP: reversed phase HPLC column
Method: [table] If more than one Log P value is available within the same method, all the values are given and separated by “+”. Calibration was done with straight-chain alkan2-ones (with 3 to 16 carbon atoms) with known Log P values (measurement of Log P values using retention times with linear interpolation between successive alkanones). Lambda-max-values were determined using UV-spectra from 200 nm to 400 nm and the peak values of the chromatographic signals.

Septoria tritici = assay: In vivo preventive test on Septoria tritici (leaf spot on wheat); conditions: Zymoseptoria tritici, 576 h; 500 ppm of active ingredient; preventive spray on young wheat plants; evaluated 24 days after inoculation; read-out: efficacy
Method: Example B: In Vivo Preventive Test on Septoria tritici (Leaf Spot on Wheat) [table] The active ingredients are made soluble and homogenized in a mixture of Dimethyl sulfoxide/Acetone/Tween® 80 and then diluted in water to the desired concentration. The young plants of wheat are treated by spraying the active ingredient prepared as described above. Control plants are treated only with an aqueous solution of Acetone/Dimethyl sulfoxide/Tween® 80. After 24 hours, the plants are contaminated by spraying the leaves with an aqueous suspension of Septoria tritici spores. The contaminated wheat plants are incubated for 72 hours at 18° C. and at 100% relative humidity and then for 21 days at 20° C. and at 90% relative humidity. The test is evaluated 24 days after the inoculation. 0% means an efficacy which corresponds to that of the control plants while an efficacy of 100% means that no disease is observed.

Uromyces appendiculatus = assay: In vivo preventive test on Uromyces appendiculatus (bean rust); conditions: 264 h, 500 ppm of active ingredient, preventive spray on young bean plants, evaluated 11 days after inoculation, read-out: efficacy
Method: (§1) Example D: In Vivo Preventive Test on Uromyces appendiculatus (Bean Rust) [table] The active ingredients are made soluble and homogenized in a mixture of Dimethyl sulfoxide/Acetone/Tween® 80 and then diluted in water to the desired concentration. The young plants of bean are treated by spraying the active ingredient prepared as described above. Control plants are treated only with an aqueous solution of Acetone/Dimethyl sulfoxide/Tween® 80. After 24 hours, the plants are contaminated by spraying the leaves with an aqueous suspension of Uromyces appendiculatus spores. The contaminated bean plants are incubated for 24 hours at 20° C. and at 100% relative humidity and then for 10 days at 20° C. and at 70-80% relative humidity. The test is evaluated 11 days after the inoculation. 0% means an efficacy which corresponds to that of the control plants while an efficacy of 100% means that no disease is observed.

Puccinia recondita = assay: In vivo preventive test on Puccinia recondita (brown rust on wheat); conditions: 264 h, 500 ppm of active ingredient, preventive spray on young wheat plants, evaluated 11 days after inoculation, read-out: efficacy
Method: as §1, with “A:” for “D:”, “Puccinia recondita (Brown Rust on Wheat)” for “Uromyces appendiculatus (Bean Rust)”, “wheat” for “bean”, “Puccinia recondita” for “Uromyces appendiculatus”

[2] = system: Blumeria graminis fsp. hordei; assay: In vivo preventive Blumeria test (barley); conditions: 168 h, 500 ppm of active ingredient, preventive spray on young barley plants, evaluated 7 days after inoculation, read-out: efficacy
Method: Example F: In Vivo Preventive Blumeria Test (Barley) [table] To produce a suitable preparation of active compound, 1 part by weight of active compound or active compound combination is mixed with the stated amounts of solvent and emulsifier, and the concentrate is diluted with water to the desired concentration. To test for preventive activity, young plants are sprayed with the preparation of active compound or active compound combination at the stated rate of application. After the spray coating has been dried, the plants are dusted with spores of Blumeria graminis fsp. hordei. The plants are placed in the greenhouse at a temperature of approximately 18° C. and a relative atmospheric humidity of approximately 80% to promote the development of mildew pustules. The test is evaluated 7 days after the inoculation. 0% means an efficacy which corresponds to that of the untreated control, while an efficacy of 100% means that no disease is observed.

Sphaerotheca fuliginea = assay: In vivo preventive test on Sphaerotheca fuliginea (powdery mildew on cucurbits); conditions: Podosphaera fuliginea, 360 h; 500 ppm of active ingredient; preventive spray on young gherkin plants; evaluated 15 days after inoculation; read-out: efficacy
Method: Example C: In Vivo Preventive Test on Sphaerotheca fuliginea (Powdery Mildew on Cucurbits) [table] The active ingredients are made soluble and homogenized in a mixture of Dimethyl sulfoxide/Acetone/Tween® 80 and then diluted in water to the desired concentration. The young plants of gherkin are treated by spraying the active ingredient prepared as described above. Control plants are treated only with an aqueous solution of Acetone/Dimethyl sulfoxide/Tween® 80. After 24 hours, the plants are contaminated by spraying the leaves with an aqueous suspension of Sphaerotheca fuidiginea spores. The contaminated gherkin plants are incubated for 72 hours at 18° C. and at 100% relative humidity and then for 12 days at 20° C. and at 70-80% relative humidity. The test is evaluated 15 days after the inoculation. 0% means an efficacy which corresponds to that of the control plants while an efficacy of 100% means that no disease is observed.

SMILES	LogP [1]	chromatographic logP [1]	pest or weed control at 500 ppm (Septoria tritici) [%]	pest or weed control at 500 ppm (Uromyces appendiculatus) [%]	pest or weed control at 500 ppm (Puccinia recondita) [%]	pest or weed control at 500 ppm [2] [%]	pest or weed control at 500 ppm (Sphaerotheca fuliginea) [%]
N#Cc1cncn1CC1(c2ccc(F)cc2)OC1c1cccnc1Cl (stereo not drawn) [I-17]	2.50 ^[a]	–	90 to 100	90 to 100	–	–	–
N#Cc1cncn1CC1(c2ccc(Cl)cc2)OC1c1ccccc1Br (stereo not drawn) [I-11]	–	3.83	90 to 100	90 to 100	90 to 100	80 to 89	–
Fc1ccc(C2(Cn3cncc3F)OC2c2cccnc2Cl)cc1 (stereo not drawn) [I-15]	–	1.57	–	–	–	–	90 to 100
N#Cc1cncn1CC1(c2ccc(Br)cc2)OC1c1ccccc1Cl (stereo not drawn) [I-08]	–	3.85	90 to 100	90 to 100	–	–	90 to 100
Fc1ccc(C2(Cn3cncc3F)OC2c2ccccc2Br)cc1 (stereo not drawn) [I-14]	–	2.66	90 to 100	90 to 100	–	90 to 100	90 to 100
N#Cc1cncn1CC1(c2ccc(F)cc2F)OC1c1ccccc1Cl (stereo not drawn) [I-09]	–	3.06	90 to 100	90 to 100	–	–	90 to 100
N#Cc1cncn1CC1(c2ccc(OC(F)(F)F)cc2)OC1c1ccccc1Cl (stereo not drawn) [I-07]	–	4.11	90 to 100	90 to 100	90 to 100	90 to 100	90 to 100
N#Cc1cncn1CC1(c2ccc(Cl)cc2)OC1c1ccccc1F (stereo not drawn) [I-10]	–	3.41	90 to 100	90 to 100	90 to 100	90 to 100	90 to 100
N#Cc1cncn1CC1(c2ccc(F)cc2)OC1c1ccccc1F (stereo not drawn) [I-12]	–	3.06	90 to 100	90 to 100	90 to 100	90 to 100	90 to 100
N#Cc1cncn1C[C@]1(c2ccc(F)cc2)O[C@@H]1c1ccccc1Cl (relative stereo) [I-04, cis 3-[[3-(2-chlorophenyl)-2-(4-fluorophenyl)oxiran-2-yl]methyl]imidazole-4-carbonitrile]	–	2.98	80 to 89	80 to 89	–	–	90 to 100
N#Cc1cncn1CC1(c2ccc(F)cc2)OC1c1ccccc1Br (stereo not drawn) [I-13]	–	3.44	90 to 100	90 to 100	90 to 100	90 to 100	–
Fc1ccc(C2(Cn3cncc3F)OC2c2ccccc2Cl)cc1 (stereo not drawn) [I-02]	–	2.62	90 to 100	90 to 100	90 to 100	90 to 100	90 to 100
N#Cc1cncn1C[C@]1(c2ccc(F)cc2)O[C@H]1c1ccccc1Cl (relative stereo) [I-03, trans 3-[[3-(2-chlorophenyl)-2-(4-fluorophenyl)oxiran-2-yl]methyl]imidazole-4-carbonitrile]	–	3.33	90 to 100	90 to 100	–	90 to 100	90 to 100
Fc1ccc(C2(Cn3cncc3Cl)OC2c2ccccc2Cl)cc1 (stereo not drawn) [I-01]	–	3.19	90 to 100	90 to 100	90 to 100	90 to 100	90 to 100
N#Cc1cncn1CC1(c2ccc(C(F)(F)F)cc2)OC1c1ccccc1Cl (stereo not drawn) [I-05]	–	3.96	90 to 100	90 to 100	90 to 100	90 to 100	90 to 100
N#Cc1cncn1CC1(c2ccc(F)cc2)OC1c1cccnc1Cl (stereo not drawn) [I-16]	–	2.2	–	–	–	–	90 to 100
N#Cc1cncn1CC1(c2ccc(Cl)cc2)OC1c1ccccc1Cl (stereo not drawn) [I-06]	–	3.68	90 to 100	90 to 100	90 to 100	90 to 100	90 to 100

The next lines start with results.

LogP [1]	chromatographic logP [1]	SMILES	pest or weed control at 500 ppm (Septoria tritici) [%]	pest or weed control at 500 ppm (Uromyces appendiculatus) [%]	pest or weed control at 500 ppm (Puccinia recondita) [%]	pest or weed control at 500 ppm [2] [%]	pest or weed control at 500 ppm (Sphaerotheca fuliginea) [%]
–	2.5	N#Cc1cncn1CC1(c2ccc(F)cc2)OC1c1ccnc(Cl)c1 (stereo not drawn) [I-20]	90 to 100	90 to 100	90 to 100	–	90 to 100
–	3.37	N#Cc1cncn1CC1(c2ccc(F)cc2)OC1c1ccc(Cl)cc1 (stereo not drawn) [I-24]	90 to 100	90 to 100	90 to 100	–	90 to 100
–	3.35	N#Cc1cncn1CC1(c2ccc(F)cc2)OC1c1cccc(Cl)c1 (stereo not drawn) [I-21]	80 to 89	90 to 100	90 to 100	–	90 to 100
–	3.26	COc1ccc(C2(Cn3cncc3C#N)OC2c2ccccc2Cl)cc1 (stereo not drawn) [I-22]	90 to 100	90 to 100	90 to 100	–	90 to 100
–	3.71	N#Cc1cncn1CC1(c2ccc(F)cc2Cl)OC1c1ccccc1Cl (stereo not drawn) [I-29]	90 to 100	90 to 100	90 to 100	90 to 100	90 to 100
–	3.44	N#Cc1cncn1CC1(c2ccc(F)cc2)OC1c1cccc(Br)c1 (stereo not drawn) [I-23]	90 to 100	90 to 100	90 to 100	–	90 to 100
–	3.8	N#Cc1cncn1CC1(c2ccc(Cl)cc2F)OC1c1ccccc1Cl (stereo not drawn) [I-25]	90 to 100	90 to 100	90 to 100	90 to 100	90 to 100
–	2.86	COc1ccc(C2(Cn3cncc3C#N)OC2c2ccccc2Cl)cn1 (stereo not drawn) [I-19]	90 to 100	80 to 89	90 to 100	–	90 to 100
